Calls of active or inactive are those of the source. The calls are words filed in the database; no cut-off is given here.
Assays:
[1] = test system: Human immunodeficiency virus; experiment: Antiviral activity against HIV assessed as inhibition of viral replication; format: functional, organism-based
[2] = Cytotoxicity against human HuH5.2 cells; format: cell-based, Huh-5-2
[3] = test system: Hepatitis C virus; experiment: Antiviral activity against HCV infected in Huh5.2 cells assessed as inhibition of viral replication by luciferase reporter gene assay; format: functional, organism-based, Hepacivirus hominis; conditions: Huh-5-2
[4] = test system: Hepatitis C virus; experiment: Antiviral activity against HCV infected in Huh5.2 cells assessed as concentration required to inhibit viral replication without causing an antimetabolic effect; format: functional, Hepacivirus hominis
[5] = Selectivity ratio, ratio of CC50 for Huh5.2 cells to IC50 for HCV infected in Huh5.2 cells; format: cell-based; conditions: human, Huh5.2 cells (CC50) and HCV-infected Huh5.2 cells (IC50)

Structure (SMILES)	Activity [1]	CC50 [2] [µM]	IC50 [3] [µM]	Imax [4] [%]	selectivity ratio [5]
Cc1cn(Cc2cn(CCP(=O)(O)O)nn2)c(=O)[nH]c1=O	inactive	> 300	20	79.28	> 15
Nc1ncnc2c1ncn2Cc1cn(CCP(=O)(O)O)nn1	inactive	35	> 35	–	< 1
Nc1ncnc2c1ncn2Cc1cn(CP(=O)(O)O)nn1	inactive	> 300	16	80.65	> 20
O=c1ccn(Cc2cn(CP(=O)(O)O)nn2)c(=O)[nH]1	inactive	131	29	–	4.42
Cc1cn(Cc2cn(CP(=O)(O)O)nn2)c(=O)[nH]c1=O	inactive	> 300	26	–	> 13
O=c1ccn(Cc2cn(CCP(=O)(O)O)nn2)c(=O)[nH]1	inactive	> 300	16	75.47	> 20
